US5650442A (priority 1994, dated 1997)

What was measured:
[1] = system: KHT tumors; test: In vivo radiosensitization of KHT tumors (regrowth delay); parameters: species or system C3H mice
Procedure: This murine model is one which is routinely used to test hypoxic radiosensitizers. In fact, results obtained with this model were used as a basis for initiating clinical trials of nitroimidazoles as radiation sensitizers in the early to mid-1970's.
C3H mice with hind leg implants of KHT tumors were exposed to radiation. When the tumors had grown to 8 mm in circumference, the mice were treated with DEA/NO alone (control), 15 cGy directed at the tumor, or DEA/NO given 30 minutes before tumor irradiation with 15 cGy (DEA/NO (30 min)). The mice experienced a tumor regrowth delay of one day after treatment of the tumor with 15 cGy.

[2] = system: C3H mice; test: Protection of mice from whole body irradiation; assay type: in vivo; conditions: for Percent survival of mice at 30 days: 1100 cGy
From the text: Female C3H mice were obtained from the Frederick Cancer Research Center--Animal Production in Frederick, Md. C3H mice have been used in whole body irradiation studies since 1948 (Patt, et al., Science, 110, 213-214 (1949)) and are considered to serve as good models for predicting the effects of radiation in humans.
C3H mice were received at six weeks of age and were housed five per cage in climate-controlled, circadian rhythm-adjusted rooms and allowed food and water ad libitum. The animals were 60-80 days old at the time of radiation. A total of 10-15 mice were used per radiation dose. Mice were weighed in groups of five. The weights of each group ranged from 110 grams to 135 grams or an average weight of 22-27 grams per mouse.
In all experiments drugs and diluent (in control mice) were injected intraperitoneally into mice in volumes equivalent to 1% of each animal's weight (0.22 to 0.27 ml). Groups of 5-10 mice were placed in round (30.5 cm diameter and 10.5 cm height) Plexiglas containers with holes for ventilation for irradiation. The irradiator was calibrated with thermoluminescent dosimetry chips planted in phantom mice, and the radiation dose was determined according to previously described methodology (Cameron et al., "Thermoluminescent Dosimetry" (Univ. of Wisconsin Press, Madison, Wis., 1968)). The dose rate used was 1 Gy/min. Total time of irradiation varied as a function of the dose delivered. Immediately after irradiation, the mice were separated into groups of five and returned to climate-controlled cages for observation. The mice were assessed daily for survival.
The results are shown in FIG. 7, which is a graph of percent surviving versus days after irradiation with 11 Gy for control mice (.box-solid., n=10), which were injected with saline, mice treated with DEA/NO 10 minutes prior to irradiation (.largecircle., n=15), and mice treated with DEA/NO 30 minutes prior to irradiation (.circle-solid., n=15).

[3] = system: Chinese hamster V79 fibroblasts; test: Chemosensitization of V79 cells to bioreductive agents (mitomycin C, SR 4233)

CCN(CC)/[N+]([O-])=N/[O-].[Na+] [DEA/NO]
tumor regrowth delay ([1]; 80 mg/kg 30 min before 15 cGy tumor irradiation): 8 days | survival with no evidence of tumor ([1]; DEA/NO (30 min) group, 15 cGy): Two animals in the DEA/NO (30 min) group survived for at least four weeks with no evidence of tumor | tumors eradicated ([1]; DEA/NO before 15 cGy, n=14): 14% | protection from whole body irradiation ([2]; 80 mg/kg i.p. before irradiation): protected mice from whole-body irradiation | Percent survival of mice at 30 days ([2]; 80 mg/kg i.p. 10 min before): 44% | Percent survival of mice at 30 days ([2]; 80 mg/kg i.p. 30 min before): 60% | enhancement of hypoxic cytotoxicity of SR 4233 ([3]; 25 μm SR 4233, 1 mM, hypoxic, 1 hr): enhance the hypoxic cytotoxicity of SR 4233 | enhancement of mitomycin C cytotoxicity ([3]; aerobic and hypoxic conditions): enhanced cytotoxicity under both aerobic and hypoxic conditions
